Measured values published in ChEMBL document CHEMBL5375979, “Chemical, Biochemical, Cellular, and Physiological Characterization of Leucettinib-21, a Down Syndrome and Alzheimer's Disease Drug Candidate” (J Med Chem, 2023).

Tests used:
[1] = target: Dual specificity protein kinase CLK4 (Homo sapiens, UniProt Q9HAZ1)
[2] = target: T1, Dual specificity tyrosine-phosphorylation-regulated kinase 4 (Homo sapiens, UniProt Q9NR20)
T1 sequence (Q9NR20 whole entry): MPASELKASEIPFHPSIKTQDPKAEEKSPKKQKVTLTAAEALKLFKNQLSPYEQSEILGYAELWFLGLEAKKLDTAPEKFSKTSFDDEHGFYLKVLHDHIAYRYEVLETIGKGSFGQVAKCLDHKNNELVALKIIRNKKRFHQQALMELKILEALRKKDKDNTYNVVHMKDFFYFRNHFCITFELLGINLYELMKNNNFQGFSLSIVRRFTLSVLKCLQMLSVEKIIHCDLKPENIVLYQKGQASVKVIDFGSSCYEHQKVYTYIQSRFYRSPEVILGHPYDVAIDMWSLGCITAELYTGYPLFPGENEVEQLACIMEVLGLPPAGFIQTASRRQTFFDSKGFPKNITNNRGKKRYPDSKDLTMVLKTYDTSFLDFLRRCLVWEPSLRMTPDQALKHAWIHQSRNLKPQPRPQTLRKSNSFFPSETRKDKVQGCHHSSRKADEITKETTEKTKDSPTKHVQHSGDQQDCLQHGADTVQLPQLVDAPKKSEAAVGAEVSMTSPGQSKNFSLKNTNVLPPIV

[3] = target: Dual specificity protein kinase CLK1 (Homo sapiens, UniProt P49759)
[4] = target: Glycogen synthase kinase-3 (Homo sapiens, UniProt P49840+P49841); assay type: protein assay
[5] = target: Dual specificity protein kinase CLK3 (Homo sapiens, UniProt P49761)
[6] = target: T2, Dual specificity tyrosine-phosphorylation-regulated kinase 3 (Homo sapiens, UniProt O43781)
T2 sequence (O43781 whole entry): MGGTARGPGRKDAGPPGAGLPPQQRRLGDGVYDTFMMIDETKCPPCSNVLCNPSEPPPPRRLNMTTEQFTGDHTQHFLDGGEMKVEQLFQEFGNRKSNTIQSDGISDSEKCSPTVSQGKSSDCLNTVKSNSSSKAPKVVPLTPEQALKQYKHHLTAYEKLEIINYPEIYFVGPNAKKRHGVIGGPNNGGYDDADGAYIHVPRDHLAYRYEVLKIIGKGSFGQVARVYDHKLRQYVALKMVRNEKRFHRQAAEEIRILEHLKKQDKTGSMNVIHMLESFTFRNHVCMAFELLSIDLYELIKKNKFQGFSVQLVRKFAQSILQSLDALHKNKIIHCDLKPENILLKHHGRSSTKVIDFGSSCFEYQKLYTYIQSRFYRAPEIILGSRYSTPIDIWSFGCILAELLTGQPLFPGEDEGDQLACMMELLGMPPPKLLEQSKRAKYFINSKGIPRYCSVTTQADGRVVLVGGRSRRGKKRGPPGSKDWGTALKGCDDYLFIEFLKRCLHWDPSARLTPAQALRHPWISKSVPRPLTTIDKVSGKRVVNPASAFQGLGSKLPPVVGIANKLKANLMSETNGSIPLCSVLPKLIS

[7] = target: Casein kinase I; assay type: protein assay, Homo sapiens
[8] = target: Cyclin-dependent kinase 5 (Homo sapiens, UniProt Q00535)
[9] = target: Dual specificity protein kinase CLK2 (Homo sapiens, UniProt P49760)
[10] = target: Dual specificity tyrosine-phosphorylation-regulated kinase 1A (Homo sapiens, UniProt Q13627)
[11] = target: Dual specificity tyrosine-phosphorylation-regulated kinase 1B (Homo sapiens, UniProt Q9Y463)
[12] = target: T3, Dual specificity tyrosine-phosphorylation-regulated kinase 2 (Homo sapiens, UniProt Q92630)
T3 sequence (Q92630 whole entry): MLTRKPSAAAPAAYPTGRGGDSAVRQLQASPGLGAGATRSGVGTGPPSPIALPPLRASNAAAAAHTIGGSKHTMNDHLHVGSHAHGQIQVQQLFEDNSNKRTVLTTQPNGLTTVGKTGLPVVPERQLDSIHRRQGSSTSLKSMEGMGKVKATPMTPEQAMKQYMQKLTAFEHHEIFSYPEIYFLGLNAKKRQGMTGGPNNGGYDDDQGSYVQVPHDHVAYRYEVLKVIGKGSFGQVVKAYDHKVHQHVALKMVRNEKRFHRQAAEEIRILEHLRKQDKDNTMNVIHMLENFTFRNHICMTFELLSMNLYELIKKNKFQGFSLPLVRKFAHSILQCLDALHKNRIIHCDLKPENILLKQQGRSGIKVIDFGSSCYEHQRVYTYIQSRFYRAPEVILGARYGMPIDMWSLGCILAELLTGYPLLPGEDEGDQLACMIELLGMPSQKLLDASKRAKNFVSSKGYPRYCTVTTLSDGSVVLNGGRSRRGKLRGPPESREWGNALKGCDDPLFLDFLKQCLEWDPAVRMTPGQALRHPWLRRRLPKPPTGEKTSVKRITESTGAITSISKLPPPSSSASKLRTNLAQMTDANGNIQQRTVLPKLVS

Dual specificity protein kinase CLK3, sequence (P49761 whole entry): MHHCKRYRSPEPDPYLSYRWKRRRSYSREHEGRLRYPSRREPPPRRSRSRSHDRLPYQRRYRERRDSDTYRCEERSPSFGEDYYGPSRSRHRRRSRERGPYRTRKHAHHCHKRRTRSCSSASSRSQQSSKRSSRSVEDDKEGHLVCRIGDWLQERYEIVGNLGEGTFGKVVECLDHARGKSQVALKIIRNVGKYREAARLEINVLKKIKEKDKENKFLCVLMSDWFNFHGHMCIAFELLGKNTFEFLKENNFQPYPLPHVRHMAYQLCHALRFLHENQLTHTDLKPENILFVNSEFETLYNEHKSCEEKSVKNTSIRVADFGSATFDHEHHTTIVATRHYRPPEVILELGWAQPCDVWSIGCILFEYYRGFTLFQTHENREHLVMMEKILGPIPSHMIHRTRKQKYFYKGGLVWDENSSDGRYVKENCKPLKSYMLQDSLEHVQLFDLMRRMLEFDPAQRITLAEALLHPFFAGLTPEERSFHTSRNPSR
Cyclin-dependent kinase 5, sequence (Q00535 whole entry): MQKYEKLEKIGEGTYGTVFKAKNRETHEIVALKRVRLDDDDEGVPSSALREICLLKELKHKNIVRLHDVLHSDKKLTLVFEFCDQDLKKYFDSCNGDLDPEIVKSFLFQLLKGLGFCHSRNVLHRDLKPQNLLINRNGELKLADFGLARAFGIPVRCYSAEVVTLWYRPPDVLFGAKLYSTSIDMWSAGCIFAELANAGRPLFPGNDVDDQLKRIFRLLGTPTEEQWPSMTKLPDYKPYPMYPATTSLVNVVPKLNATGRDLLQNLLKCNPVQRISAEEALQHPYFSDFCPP
Dual specificity protein kinase CLK4, sequence (Q9HAZ1 whole entry): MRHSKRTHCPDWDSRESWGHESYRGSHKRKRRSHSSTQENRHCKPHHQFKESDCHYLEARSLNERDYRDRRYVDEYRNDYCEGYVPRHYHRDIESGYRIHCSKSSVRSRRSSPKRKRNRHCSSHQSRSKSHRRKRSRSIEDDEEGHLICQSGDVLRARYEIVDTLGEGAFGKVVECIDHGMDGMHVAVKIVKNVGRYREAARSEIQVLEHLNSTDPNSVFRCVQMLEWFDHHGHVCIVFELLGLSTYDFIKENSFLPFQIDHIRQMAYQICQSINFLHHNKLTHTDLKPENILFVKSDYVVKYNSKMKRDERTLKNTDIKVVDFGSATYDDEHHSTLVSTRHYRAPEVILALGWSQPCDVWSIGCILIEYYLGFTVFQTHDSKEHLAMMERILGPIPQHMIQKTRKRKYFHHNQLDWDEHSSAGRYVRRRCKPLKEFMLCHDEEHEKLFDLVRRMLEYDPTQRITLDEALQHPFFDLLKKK
Dual specificity protein kinase CLK2, sequence (P49760 whole entry): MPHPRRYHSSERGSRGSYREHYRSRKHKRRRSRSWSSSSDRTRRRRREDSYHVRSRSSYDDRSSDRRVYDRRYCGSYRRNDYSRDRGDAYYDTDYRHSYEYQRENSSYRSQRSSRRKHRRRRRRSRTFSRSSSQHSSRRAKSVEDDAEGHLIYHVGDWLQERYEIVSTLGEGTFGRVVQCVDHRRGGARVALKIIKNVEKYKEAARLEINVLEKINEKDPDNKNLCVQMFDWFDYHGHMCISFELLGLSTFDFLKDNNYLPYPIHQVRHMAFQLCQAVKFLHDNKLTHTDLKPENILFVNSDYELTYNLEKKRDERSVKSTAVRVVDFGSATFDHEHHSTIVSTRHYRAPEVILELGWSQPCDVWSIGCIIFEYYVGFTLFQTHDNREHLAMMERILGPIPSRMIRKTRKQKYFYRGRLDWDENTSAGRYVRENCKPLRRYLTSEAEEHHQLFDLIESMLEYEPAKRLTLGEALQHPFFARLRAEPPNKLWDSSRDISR
Dual specificity protein kinase CLK1, sequence (P49759 whole entry): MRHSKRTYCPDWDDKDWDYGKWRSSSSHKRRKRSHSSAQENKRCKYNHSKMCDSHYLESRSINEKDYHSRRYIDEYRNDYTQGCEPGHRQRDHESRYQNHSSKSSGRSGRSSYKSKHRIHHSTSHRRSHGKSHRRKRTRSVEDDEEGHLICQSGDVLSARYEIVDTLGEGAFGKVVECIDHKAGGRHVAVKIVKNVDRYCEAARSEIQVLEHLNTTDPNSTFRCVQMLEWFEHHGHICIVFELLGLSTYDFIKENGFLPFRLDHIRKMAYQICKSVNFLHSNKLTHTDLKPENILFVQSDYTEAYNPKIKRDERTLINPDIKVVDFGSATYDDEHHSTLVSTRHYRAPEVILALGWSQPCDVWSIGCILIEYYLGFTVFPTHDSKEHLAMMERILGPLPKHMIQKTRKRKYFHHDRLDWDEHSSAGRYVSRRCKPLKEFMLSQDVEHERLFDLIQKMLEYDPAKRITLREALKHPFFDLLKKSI
Dual specificity tyrosine-phosphorylation-regulated kinase 1B, sequence (Q9Y463 whole entry): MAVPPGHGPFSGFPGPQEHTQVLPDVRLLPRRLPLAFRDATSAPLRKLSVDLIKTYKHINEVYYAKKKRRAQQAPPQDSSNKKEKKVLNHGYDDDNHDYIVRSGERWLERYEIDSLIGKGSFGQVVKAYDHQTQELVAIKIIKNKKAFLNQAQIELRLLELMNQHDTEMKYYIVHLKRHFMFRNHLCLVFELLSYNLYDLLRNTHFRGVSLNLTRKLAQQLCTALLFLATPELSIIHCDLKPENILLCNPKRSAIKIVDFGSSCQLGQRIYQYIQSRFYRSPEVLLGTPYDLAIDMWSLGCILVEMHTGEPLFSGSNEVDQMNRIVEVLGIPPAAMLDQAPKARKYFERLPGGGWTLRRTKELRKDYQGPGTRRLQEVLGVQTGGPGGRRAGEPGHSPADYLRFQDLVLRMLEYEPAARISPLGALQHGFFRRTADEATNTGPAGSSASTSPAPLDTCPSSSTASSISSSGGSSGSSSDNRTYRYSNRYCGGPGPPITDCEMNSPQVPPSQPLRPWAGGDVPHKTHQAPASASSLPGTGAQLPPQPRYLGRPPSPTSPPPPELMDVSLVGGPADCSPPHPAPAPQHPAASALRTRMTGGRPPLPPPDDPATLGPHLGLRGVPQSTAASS

Row | IC50 [1] [nM] | IC50 [2] [µM] | IC50 [3] [nM] | IC50 [4] [µM] | IC50 [5] [µM] | IC50 [6] [µM] | IC50 [7] [µM] | IC50 [8] [µM] | IC50 [9] [µM] | IC50 [10] [nM] | IC50 [11] [µM] | IC50 [12] [nM] | Structure (SMILES)
1 | 6490 | > 10 | > 10000 | > 10 | > 10 | > 10 | > 10 | > 10 | > 10 | – | – | – | COC[C@@H](CC(C)C)NC1=N/C(=C\c2cc3scnc3cn2)C(=O)N1
2 | 240 | 2.86 | – | 8.988 | 1.26 | 0.842 | > 10 | > 10 | 0.643 | 506 | – | – | COC[C@@H](CC(C)C)NC1=N/C(=C\c2ccc3ncsc3c2)C(=O)N1C1CC1
3 | 1010 | > 10 | 2450 | > 10 | 5.32 | > 10 | > 10 | > 10 | 6.47 | > 10000 | > 10 | 774 | COC[C@@H](CC(C)C)NC1=N/C(=C\c2ccc3ncsc3c2)C(=O)N1C1CCCC1
